The test system of experiment [1] is BT549 breast cancer cells. Briefly: 3H-thymidine incorporation assay, BT549. In kind it is cell-based, human. The procedure: FIG. 4. Compounds #1, #7, and #11 inhibit proliferation of BT549 breast cancer cells. BT549 cells were treated for 24 hours with the indicated “Pocket #1” compounds. The effect of treatment on cell proliferation was quantitated by measuring the amount of ^3H-Thymidine incorporated into cellular DNA over a two hour time interval. The results are presented as the average of triplicate determinations ±standard deviation.
FIG. 5. Compounds predicted to bind to “Pocket #2” inhibit proliferation of BT549 breast cancer cells. BT549 cells were treated for 24 hours with the indicated “Pocket #2” compounds. The effect of treatment on cell proliferation was quantitated by measuring the amount of ^3H-Thymidine incorporated into cellular DNA over a two hour time interval. The results are presented as the average of triplicate determinations ±standard deviation.
Additional ^3H-thymidine incorporation assays were performed to determine whether the “Pocket #2” binding drugs (see Table 2) inhibit cell proliferation at concentrations lower than 100 μM.
A general note: Dividing cells build labelled thymidine or BrdU into new DNA.

In experiment [2] the test system is prostate cancer cell line, Gs-α. Briefly: Matrigel cell invasion assay. Format: cell-based. As to conditions: Matrigel invasion chambers, 36 h. The procedure: A cell invasion assay was performed on an aggressive prostate cancer cell line, Gs-α, to determine the effects of selected compounds that inhibit cell proliferation.
The experiment was performed in six-well Matrigel two-tier invasion chambers (Collaborative Biomedical Products, Bedford, Mass., USA), using a protocol similar to that used successfully by others (see, e.g., Chien J, Wong E, Nikes E et al., Oncogene 1999; 18: 3376-3382, incorporated herein by reference). […]
While the membranes were still wet in culture dishes, the GFP-positive cells on the entire membrane were counted under fluorescent illumination. […] The total number of cells on the entire gel was counted. The data from invasion assay were corrected for cell growth during experimental periods as follows: the experimental cells were plated at a density of 10^5 cells per well in six-well control inserts in chemoattractant medium and increase in cell number were determined after 48 h. […] The results were expressed as mean±standard deviation. […]
Significance of differences in Percent Invasion according to treatment (or transfection of Metafectene vehicle alone) were assessed by Student's t-test.

The subject of a further experiment is PC3 prostate tumor cells. As to the kind of experiment: Mouse xenograft tumor model, PC3. As to conditions: intratumoral, 1:50 dilution (2 mM), compared with 1:50 DMSO in PBS in two controls. Format: in vivo, SCID mice. The procedure: A compound of the invention (Compound 1) was tested in a mouse xenograft tumor model to determine whether the compound can inhibit tumor growth in vivo.
SCID mice were subcutaneously implanted with PC3 prostate tumor cells in the flank and were administered intratumorally with controls (DMSO) or a test compound.
The two control animals were sacrificed when the total tumor volume (L×W×H) exceeded 1.5 cc. The treated animal was sacrificed because a small but significant skin ulceration was developing over the tumor.

Experiment [3] has as its system multiple human cancer cell lines. The settings on record: NCI screen, read-out: average 50% inhibitory concentration (IC50), proliferation; cited from earlier work.
For another experiment, the system named is PC-3 tumor cells. Briefly: PC-3 tumor in mice, intratumoral injection with CD44 RNA interference. Format: in vivo. The settings on record: combined with CD44 RNA interference, after 11 days of injection, three treated animals. The procedure: The effect of 4-tert-Butyl-2-nitroaniline when combined with CD44 RNA interference was therefore investigated.
Seven-wk-old mice (Jackson Laboratory, Bar Harbor, Me.) were injected in the right flank with 2×10^6 PC-3 tumor cells in 500 μl liquid Matrigel. […] By 14 days after injection, a tumor mass was palpable and at 27 days, 4-tert-Butyl-2-nitroaniline and CD44 RNAi therapy commenced. Gene transfection was controlled for quantitation by injecting a constant 10 μg of vector. This approach involved mixing volume of DNA containing 10 μg of pU6BS (and subsequently pTracer) plasmid having the CD44 RNAi construct with 10 μl of Metafectene before injection into the tumor. Both Metafectene and DNA were diluted separately in 100 μl of sterile serum-free RPMI before mixing (see, e.g., Iczkowski K A, Omara-Opyene A L, and Klösel R., Molecular Biotechnology 2004; 28:97-103). The mixture was then allowed to stand for 30 minutes before injection to allow the formation of Metafectene:DNA complexes.
Intra-tumoral injection was performed five times weekly, angling the needle at different areas of the tumor during a given injection as well as varying the injection site for each injection occasion. Control animals were injected with 100 μl consisting of 50 μl empty vector/medium plus 50 μl of Metafectene.

The next experiment deals with NMuMG cells. As to the kind of experiment: 3H-thymidine incorporation assay, NMuMG. In kind it is cell-based, mouse. The settings on record: 100 μM, 24 hours. The source says: (§1) FIG. 2. In silico molecular docking and preliminary analysis of potential Cyclin/Cdk2 inhibitors. (A) Cyclin A/Cdk2/p27 complex with spheres docked into the binding pocket (Pocket #1) and the pocket enclosed in a scoring grid (rectangular box). (B) Binding cleft shown filled with spheres, the top 10 hits superimposed into the binding pocket (All Hits), and the predicted mode of binding of individual hits in the Cyclin A/Cdk2/p27 pocket (Hits #3-10). (C) NMuMG (black bars) or DU145 cells (open bars) were treated for 24 hours with 100 μM of the indicated compounds and ^3H-thymidine incorporation was measured to assess rates of cell proliferation. Roscovitine is a known Cdk inhibitor and was included as a positive control. DMSO (0.1%) was included as a vehicle control. (D) Morphological change induced by 100 μM Hit #10 in NMuMG and DU145 cells after treatment for 24 hours.
(§2) Labeled thymidine (^3H-thymidine) incorporation assays were used to screen compounds at a concentration of 100 μM using mouse mammary epithelial cells and the human prostate cancer cell line DU145.
Seven of the molecules identified in Example 1 as having the top estimated binding energies (Hits/Compounds 3, 4, 6, 7, 8, 9, and 10) were obtained and tested for their ability to induce cell cycle arrest of mouse mammary NMuMG and DU145 human prostatic carcinoma cell lines in ^3H-thymidine incorporation assays (FIG. 2C). […] Thus at least five of the ten top-ranked compounds are cell permeable and induce an appreciable arrest of cancer cell proliferation.

The next experiment concerns DU145 cells. As to the kind of experiment: 3H-thymidine incorporation assay, DU145. Format: cell-based, human. As to conditions: 100 μM, 24 hours.
From the text: as §1, §2
Human prostate cancer DU145 cells were plated at 30,000 cells per well in 24-well plates and allowed to attach for 24 hours. The cells were treated for 24 hours with either 100 μM of the indicated compounds, 0.1% DMSO as a vehicle control, or left untreated. The cells were pulsed with ^3H-thymidine for two hours. The cells were fixed in 10% trichloroacetic acid and washed a total of three times with 10% trichloroacetic acid. The ^3H-thymidine-labeled DNA was dissolved in 0.2% NaOH, mixed with scintillation fluid, and the associated radioactivity quantitated using a scintillation counter. These experiments were performed in triplicate and the results are presented as the average thymidine incorporation±standard deviation. […]

Experiment [4] has as its target T1, Cdk1 (Homo sapiens, UniProt P06493).
T1 construct: endogenous in cells; host or cells: BT549
As to the kind of experiment: Immunofluorescence microscopy of Cdk1 distribution. In kind it is cell-based. The source says: (§3) It appears that compounds of the invention can cause redistribution of Cdk1, Cdk2, and Cdk4 in cells.

The target in experiment [5] is T2, Cdk4 (Homo sapiens, UniProt P11802).
T2 construct: endogenous in cells; host or cells: BT549
Briefly: Immunofluorescence microscopy of Cdk4 distribution. In kind it is cell-based.
From the text: as §3

In experiment [6] the target is T1, Cdk1. As to the kind of experiment: Immunoblot of cellular Cdk1 level in BT549 cells. In kind it is cell-based. As to conditions: 24 or 48 hours, time- and dose-dependent. The procedure: (§4) BT549 cells were treated with the indicated Pocket #1 compounds for the indicated intervals. Cell lysates were prepared and the amounts of Cdk1, Cdk2, and Cdk4 were determined by immunoblot. Actin staining serves as a loading control. DMSO serves as a vehicle control.
(§5) Human breast cancer BT549 cells were treated as indicated for 24 or 48 hours with either 0.2% DMSO as a vehicle control, or compounds #3, #4, and #7 at the indicated concentrations. Cell lysates were prepared, normalized for protein content, resolved by SDS-PAGE and the proteins transferred to nitrocellulose. Levels of Cdk1, Cdk2, and Cdk4 were measured using primary antibodies specific for these proteins, followed by alkaline-phosphatase-conjugated secondary antibodies and colorimetric detection using the substrate NBT/BCIP.
A general note: Immunoblotting shows a protein as a band on a membrane.

In experiment [7] the target is T2, Cdk4. As to the kind of experiment: Immunoblot of cellular Cdk4 level in BT549 cells. The settings on record: 24 or 48 hours, time- and dose-dependent. In kind it is cell-based. The procedure:
as §4, §5

The target in experiment [8] is T3, Cdk2 (Homo sapiens, UniProt P24941). Briefly: Immunofluorescence microscopy of Cdk2 distribution. Format: cell-based. Details: endogenous in cells. As to conditions: MDA-MB-468 breast cancer cells, 24 hours. The procedure:
FIG. 6. Immunofluorescence microscopy of cellular distribution of Cdks in the absence (upper panels) and presence (lower panels) of a compound of the invention. MDA-MB-468 breast cancer cells were treated with the indicated concentration of pocket 1 compound #7 for 24 hours. Immunofluorescence microscopy was performed using an antibody to Cdk2. […] These aggregates are most apparent at sites of cell-cell contact.
as §3

Experiment [9] addresses T3, Cdk2. Briefly: Immunoblot of cellular Cdk2 level in BT549 cells. Format: cell-based. Further details: endogenous in cells; host or cells: BT549. As to conditions: 24 or 48 hours, time- and dose-dependent. The procedure: as §4, §5

Entries after “also recorded” stand apart in the source; their conditions may differ.

T1 sequence (P06493 whole entry): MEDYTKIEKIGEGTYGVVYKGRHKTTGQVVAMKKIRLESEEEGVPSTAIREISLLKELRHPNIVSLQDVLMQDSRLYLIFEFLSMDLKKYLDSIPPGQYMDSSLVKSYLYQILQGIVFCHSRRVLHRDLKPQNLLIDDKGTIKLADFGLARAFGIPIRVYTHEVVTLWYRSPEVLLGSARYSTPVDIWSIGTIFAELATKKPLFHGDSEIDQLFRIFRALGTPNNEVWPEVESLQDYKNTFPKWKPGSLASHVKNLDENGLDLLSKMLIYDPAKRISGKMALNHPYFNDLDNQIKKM
T2 sequence (P11802 whole entry): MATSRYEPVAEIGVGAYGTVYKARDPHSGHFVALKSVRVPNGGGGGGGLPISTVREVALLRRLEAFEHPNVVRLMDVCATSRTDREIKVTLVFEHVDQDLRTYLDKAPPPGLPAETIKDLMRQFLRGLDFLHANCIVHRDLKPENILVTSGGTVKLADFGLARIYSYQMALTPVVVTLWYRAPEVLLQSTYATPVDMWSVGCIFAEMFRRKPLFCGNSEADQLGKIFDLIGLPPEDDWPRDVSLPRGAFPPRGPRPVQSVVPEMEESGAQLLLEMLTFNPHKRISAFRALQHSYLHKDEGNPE

For the compound `Cc1ccc(C(=O)/C=C/c2ccccc2)s1` [Compound 1], in [1], the “potency compared with Compound 7” value is reported as “more potent than Compound 7”. Also, in experiment [1] (24 hours), the “effective concentration for inhibition of proliferation” value was “low micromolar concentrations” and the “inhibition of proliferation (3H-thymidine incorporation)” value is reported as “inhibit the proliferation”. Moreover, in experiment [2], the “cell invasiveness in vitro” value is given as “inhibit cell invasiveness”. The tumor growth result in the experiment on PC3 prostate tumor cells is given as “markedly reduced tumor growth”.
Regarding `COc1ccc2oc3cccc(NN(C)C)c3c(=O)c2c1` [Compound 2, 1-(N′,N′-Dimethyl-hydrazino)-7-methoxy-xanthen-9-one], the IC50 in [3] was 12 µM.
`CC(C)(C)c1ccc(N)c([N+](=O)[O-])c1` [Compound 3, 4-tert-Butyl-2-nitroaniline]: in the experiment with PC-3 tumor cells, the “decrease of tumor volume” value was “more than 50%”.
Consider `COc1ccc(C(C#N)=Cc2ccccn2)cc1` [Compound 7, 2-(4-methoxyphenyl)-3-pyridin-2-yl-prop-2-enenitrile], for which the “inhibition of cell proliferation (3H-thymidine incorporation)” value (shortened to “inhibition of cell proliferation”) with NMuMG cells and with DU145 cells was “significantly inhibited proliferation” throughout. Further, in [1] (24 hours), the “inhibition of proliferation (3H-thymidine incorporation)” value is “inhibit the proliferation”. The Cdk1 localization entry at Cdk1 [4] is on record as “aggregates appear primarily at cell-cell junctions”. For the same compound, on Cdk4 [5], the Cdk4 localization result is listed as “aggregates appear on top of the nuclei”. The “cellular level of Cdk1” value on Cdk1 [6] was “Decrease the Cellular Levels”. Moreover, the “cellular level of Cdk4” value on Cdk4 [7] was “Decrease the Cellular Levels”. The Cdk2 localization result at Cdk2 [8] is listed as “aggregates appear primarily at cell-cell junctions; also recorded: change in Cdk2 localization consistent with aggregation”. Besides, the “cellular level of Cdk2” value at Cdk2 [9] was “Decrease the Cellular Levels”.
Take `c1ccc(OSOc2ccccc2)cc1` [Compound 10]: in the experiment on NMuMG cells, the “inhibition of cell proliferation” value is listed as “significantly inhibited proliferation” and the morphological change result was “dramatic morphological change”. In the experiment with DU145 cells, the “inhibition of cell proliferation” value is recorded as “significantly inhibited proliferation” and the morphological change entry is given as “dramatic morphological change”.
Take `O=C(N/N=C\c1cc(Br)ccc1O)N/N=C/c1cc(Br)ccc1O` [VDW9]: the “inhibition of proliferation (3H-thymidine incorporation)” value in experiment [1] (2 μM, 24 hours) is given as “inhibited proliferation”; in experiment [1] (10 μM, 24 hours), “inhibited proliferation”.

Values taken from US8569356B2, “Cyclin dependent kinase inhibitors” (University of Florida Research Foundation, Inc., priority 2005, dated 2013).
